We go through 80 compounds from the RepoRT retention time repository (doi:10.1007/s11306-011-0298-z).

Counter-ions that a name gives are not always drawn.

The nature of the data set: RP, Waters ACQUITY UPLC HSS T3, 100 × 2.1 mm, 1.8 µm, 30 °C, 0.3 mL/min, estimated dead time 0.73 min; A: water + 0.1% formic acid, pH 3; B: methanol + 0.1% formic acid, pH 3; gradient (min/%B) 0/0 6/0 56/100 60/100. As to conditions: stereoisomer not certain.
For the compound `COc1cc(-c2[o+]c3cc(O)cc(O)c3cc2OC2OCC(O)C(O)C2O)ccc1O` (stereo not given) [peonidin-3-arabinoside], the LC retention time was 24.8 min.
Next, `COc1cc(-c2[o+]c3cc(O)cc(O)c3cc2OC2OC(CO)C(O)C(O)C2O)cc(O)c1O` (stereo not given) [petunidin-3-glucoside]: 22.9 min.
To `COc1cc(-c2[o+]c3cc(O)cc(O)c3cc2O)cc(O)c1O` [petunidin] belongs 29.7 min.
Turning to `NCCc1ccccc1` [phenethylamine], the LC retention time was 12.1 min.
To `O=C(CCc1ccc(O)cc1)c1c(O)cc(O)cc1OC1OC(CO)C(O)C(O)C1O` (stereo not given) [phloridzin] belongs 29.6 min; to `COC1C(O)C(O)C(O)C(O)C1O` (stereo not given) [pinitol], 1.41 min; to `O=C(O)C1CNCCN1` (stereo not given) [piperazine carboxylic acid], 1.19 min.
Next, `C1CCNCC1` [piperidine hydrochloride]: 2.5 min; `O=C(C=CC=Cc1ccc2c(c1)OCO2)N1CCCCC1` [piperine]: 40.7 min.
To `O=C(O)c1ccc2c(c1)OCO2` [piperonylic acid] belongs 26.7 min; to `Oc1cc(O)c2c(c1)OC(c1ccc(O)c(O)c1)C(O)C2c1c(O)cc(O)c2c1OC(c1ccc(O)c(O)c1)C(O)C2` (stereo not given) [procyanidin B1], 18.1 min; to `Oc1cc(O)c2c(c1)OC1(c3ccc(O)c(O)c3)Oc3cc(O)c4c(c3C2C1O)OC(c1ccc(O)c(O)c1)C(O)C4` (stereo not given) [procyanidin-A2], 25.2 min.
Regarding `CCCN` [propylamine], the LC retention time was 1.5 min.
Next, `O=C(O)c1ccc(O)c(O)c1` [protocatechuic acid]: 13.9 min; `COc1cc(C=Cc2ccc(O)cc2)cc(OC)c1` [pterostilbene]: 41.4 min; `Cc1ncc(COP(=O)(O)O)c(C=O)c1O` [pyridoxal 5-phosphate]: 3.99 min.
Next, `Cc1ncc(CO)c(C=O)c1O` [pyridoxal]: 3.77 min; `Cc1ncc(COP(=O)(O)O)c(CN)c1O` [pyridoxamine 5-phosphate]: 1.41 min; `Cc1ncc(CO)c(CN)c1O` [pyridoxamine]: 1.42 min.
As to `Cc1ncc(CO)c(CO)c1O` [pyridoxine], the LC retention time is 4.9 min.
Next, `Oc1ccccc1O` [pyrocatechol]: 13 min; `C1CCNC1` [pyrrolidine]: 1.5 min.
As for `CC(=O)C(=O)O` [pyruvic acid], the LC retention time was 1.79 min.
Next, `O=c1c(OC2OC(CO)C(O)C(O)C2O)c(-c2ccc(OC3OC(CO)C(O)C(O)C3O)c(O)c2)oc2cc(O)cc(O)c12` (stereo not given) [quercetin 3,4'-diglucoside]: 26.1 min; `O=c1c(OC2OC(C(O)CO)C(O)C2O)c(-c2ccc(O)c(O)c2)oc2cc(O)cc(O)c12` (stereo not given) [quercetin 3-glucoside]: 29.1 min.
Turning to `O=C(O)C1OC(Oc2c(-c3ccc(O)c(O)c3)oc3cc(O)cc(O)c3c2=O)C(O)C(O)C1O` (stereo not given) [quercetin 3-glucuronide], the LC retention time was 28.4 min.
Next, `CC1OC(OCC2OC(Oc3c(-c4ccc(O)c(O)c4)oc4cc(O)cc(O)c4c3=O)C(O)C(O)C2O)C(O)C(O)C1O` (stereo not given) [quercetin 3-rutinoside]: 29.1 min; `O=c1c(OS(=O)(=O)O)c(-c2ccc(O)c(O)c2)oc2cc(O)cc(O)c12` [quercetin 3-sulfate]: 27.4 min.
Next, `O=c1c(O)c(-c2ccc(OC3OC(CO)C(O)C(O)C3O)c(O)c2)oc2cc(O)cc(O)c12` (stereo not given) [quercetin 4'-glucoside]: 30.4 min.
To `CC(=O)OCC1OC(Oc2c(-c3ccc(O)c(O)c3)oc3cc(O)cc(O)c3c2=O)C(O)C(O)C1O` (stereo not given) [quercetin-3-O-glucose-6''-acetate] belongs 31 min; to `O=c1c(OC2OC(CO)C(O)C(O)C2O)c(-c2ccc(O)c(O)c2)oc2cc(O)cc(O)c12` (stereo not given) [quercetin-3-galactoside], 28.9 min; to `O=c1c(O)c(-c2ccc(O)c(O)c2)oc2cc(O)cc(O)c12` [quercetin], 34 min.
For `CC1OC(Oc2c(-c3ccc(O)c(O)c3)oc3cc(O)cc(O)c3c2=O)C(O)C(O)C1O` (stereo not given) [quercitrin], the LC retention time is 31.1 min.
To `O=C(O)C1(O)CC(O)C(O)C(O)C1` (stereo not given) [quinic acid] belongs 1.6 min.
To `OCC1OC(OCC2OC(OC3(CO)OC(CO)C(O)C3O)C(O)C(O)C2O)C(O)C(O)C1O` (stereo not given) [raffinose] belongs 2.6 min; to `COc1cc(O)c2c(=O)c(O)c(-c3ccc(O)c(OC)c3)oc2c1` [rhamnazin], 42.2 min; to `COc1cc(O)c2c(=O)c(O)c(-c3ccc(O)c(O)c3)oc2c1` [rhamnetin], 38.9 min.
Next, `CC1OC(O)C(O)C(O)C1O` (stereo not given) [rhamnose]: 1.57 min; `Cc1cc2nc3c(=O)[nH]c(=O)nc-3n(CC(O)C(O)C(O)CO)c2cc1C` (stereo not given) [riboflavin]: 23.9 min; `CC1OC(OCC2OC(Oc3c(-c4ccc(O)cc4)oc4cc(OC5OC(C)C(O)C(O)C5O)cc(O)c4c3=O)C(O)C(O)C2O)C(O)C(O)C1O` (stereo not given) [robinin]: 28.6 min.
As for `O=C(C=Cc1ccc(O)c(O)c1)OC(Cc1ccc(O)c(O)c1)C(=O)O` (stereo not given) [rosmarinic acid], the LC retention time was 30 min.
Next, `COc1cc(O)c2c(c1)OC(c1ccc(O)cc1)CC2=O` (stereo not given) [sakuranetin]: 39 min.
To `O=C(O)c1ccccc1O` [salicylic acid] belongs 26.4 min.
On to `C=CC(C)(O)CCC1C(C)(O)CCC2C(C)(C)CCCC21C` (stereo not given) [sclareol], for which the LC retention time was 50.1 min.
To `COc1cc2ccc(=O)oc2cc1O` [scopoletin] belongs 24.6 min.
To `NCCc1c[nH]c2ccc(O)cc12` [serotonin] belongs 11.1 min; to `COc1cc(/C=C/C(=O)O)cc(OC)c1O` [sinapic acid], 25.9 min; to `COc1cc(/C=C/CO)cc(OC)c1O` [sinapyl alcohol], 23.6 min.
Next, `COc1ccc(-c2cc(=O)c3c(OC)c(OC)c(OC)cc3o2)cc1OC` [sinensetin]: 39.3 min; `CC=CC=CC(=O)O` [sorbic acid]: 25.1 min.
With `NCCCCNCCCN` [spermidine], the LC retention time is 1.04 min.
Next, `NCCCNCCCCNCCCN` [spermine]: 0.98 min; `OCC1OC(OCC2OC(OCC3OC(OC4(CO)OC(CO)C(O)C4O)C(O)C(O)C3O)C(O)C(O)C2O)C(O)C(O)C1O` (stereo not given) [stachyose]: 2.4 min.
To `O=C(O)CCC(=O)O` [succinic acid] belongs 4.97 min.
On to `OCC1OC(OC2(CO)OC(CO)C(O)C2O)C(O)C(O)C1O` (stereo not given) [sucrose], for which the LC retention time was 1.9 min.
To `COc1cc(C=NN=Cc2cc(OC)c(O)c(OC)c2)cc(OC)c1O` [syringaldazine] belongs 35.5 min.
Next, `COc1cc(C=O)cc(OC)c1O` [syringaldehyde]: 23.5 min; `COc1cc(-c2oc3cc(O)cc(O)c3c(=O)c2OC2OC(CO)C(O)C(O)C2O)cc(OC)c1O` (stereo not given) [syringetin-3-galactoside]: 31.6 min.
In the case of `COc1cc(-c2oc3cc(O)cc(O)c3c(=O)c2O)cc(OC)c1O` [syringetin], the LC retention time was 37.4 min.
To `COc1cc(C(=O)O)cc(OC)c1O` [syringic acid] belongs 21.9 min.
With `CC(CCC(=O)NCCS(=O)(=O)O)C1CCC2C3C(O)CC4CC(O)CCC4(C)C3CC(O)C12C` (stereo not given) [taurocholic acid], the LC retention time was 42.3 min.
To `O=C1c2c(O)cc(O)cc2OC(c2ccc(O)c(O)c2)C1O` (stereo not given) [taxifolin] belongs 25.3 min; to `CC(C)(C)c1cc(O)ccc1O` [tert-butylhydroquinone], 30.5 min.
Next, `Cn1cnc2c1c(=O)[nH]c(=O)n2C` [theobromine]: 15.3 min; `Cn1c(=O)c2[nH]cnc2n(C)c1=O` [theophylline]: 17.8 min; `Cc1ncc(C[n+]2csc(CCO)c2C)c(N)n1` [thiamine]: 1.6 min.
Next, `O=C(O)C(O)C(O)CO` (stereo not given) [threonic acid]: 1.45 min.
Turning to `O=CC(O)C(O)CO` (stereo not given) [threose], the LC retention time was 1.47 min.
Regarding `O=C(C=Cc1ccc(O)cc1)OC(C(=O)O)C(O)C(=O)O` (stereo not drawn) [trans coutaric acid], the LC retention time was 18 min.
To `CC1(O)CCC(C(C)(C)O)CC1` (stereo not drawn) [trans-terpin] belongs 27.9 min; to `C[n+]1cccc(C(=O)[O-])c1` [trigonelline], 1.67 min; to `OCCc1c[nH]c2ccccc12` [trypthophol], 26.2 min.
Next, `NCCc1ccc(O)cc1` [tyramine]: 6.2 min.
`OCCc1ccc(O)cc1` [tyrosol]: the LC retention time is 17.5 min.
In the case of `O=c1ccc2ccc(O)cc2o1` [umbelliferone], the LC retention time was 23.9 min.
Next, `O=c1cc[nH]c(=O)[nH]1` [uracil]: 2.98 min; `NC(N)=O` [urea]: 1.3 min.
To `CCOC(N)=O` [urethane] belongs 7.1 min; to `O=c1[nH]c(=O)c2[nH]c(=O)[nH]c2[nH]1` [uric acid], 1.62 min.
To `O=c1ccn(C2OC(CO)C(O)C2O)c(=O)[nH]1` (stereo not given) [uridine] belongs 7 min.
